According to patent publication US10407414B2, “Mannose derivatives for treating bacterial infections” (priority 2015, dated 2019):

Tested on: bacterial strain LF82 binding to the glycoprotein BSA-(Mannose)3 (FimH antagonists)
Assay: Bacterial Binding Assay (BBA)
Type: cell-based, Escherichia coli
Settings: read-out: Bacterial Binding Assay IC50 ± SEM
Procedure, shortened: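 Luciferase-expressing E. coli LF82, grown overnight at 37 °C without shaking, added as 2×10^8 bacteria/mL suspension with compound in BSA/D-PBS binding buffer. Wells were coated with 0.5–2 μg/mL BSA-(Man)3 and BSA-blocked, with 40–75 min binding at room temperature. After washing, adherent bacteria were read by luciferase luminescence and IC50 derived.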

SMILES: OC[C@H]1O[C@H](C#Cc2cc(-n3cc(-c4ccccc4)nn3)cc3cn[nH]c23)[C@@H](O)[C@@H](O)[C@@H]1O [Compound 66, (2R,3S,4R,5S,6R)-2-(hydroxymethyl)-6-[2-[5-(4-phenyltriazol-1-yl)-1H-indazol-7-yl]ethynyl]tetrahydropyran-3,4,5-triol]
- IC50: 2 nM

SMILES: CN1CC=C(c2cc(C#C[C@H]3O[C@H](CO)[C@@H](O)[C@H](O)[C@@H]3O)c3[nH]ncc3c2)CC1 [Compound 67, (2R,3S,4R,5S,6R)-2-(hydroxymethyl)-6-[2-[5-(1-methyl-3,6-dihydro-2H-pyridin-4-yl)-1H-indazol-7-yl]ethynyl]tetrahydropyran-3,4,5-triol]
- IC50: 2 ± 0.9 nM

SMILES: OC[C@H]1O[C@H](C#Cc2cc(C3=CCOCC3)cc3cn[nH]c23)[C@@H](O)[C@@H](O)[C@@H]1O [Compound 68, (2R,3S,4R,5S,6R)-2-[2-[5-(3,6-dihydro-2H-pyran-4-yl)-1H-indazol-7-yl]ethynyl]-6-(hydroxymethyl)tetrahydropyran-3,4,5-triol]
- IC50: 1 ± 0.4 nM

SMILES: CCc1ccc(/C=C/c2cc(C#C[C@H]3O[C@H](CO)[C@@H](O)[C@H](O)[C@@H]3O)c3[nH]ncc3c2)cc1 [Compound 69, (2R,3S,4R,5S,6R)-2-[2-[5-[(E)-2-(4-ethylphenyl)vinyl]-1H-indazol-7-yl]ethynyl]-6-(hydroxymethyl)tetrahydropyran-3,4,5-triol]
- IC50: 13 ± 9 nM

SMILES: OC[C@H]1O[C@H](C#Cc2cc(C3=CCCC3)cc3cn[nH]c23)[C@@H](O)[C@@H](O)[C@@H]1O [Compound 70, (2R,3S,4R,5S,6R)-2-[2-[5-(cyclopenten-1-yl)-1H-indazol-7-yl]ethynyl]-6-(hydroxymethyl)tetrahydropyran-3,4,5-triol]
- IC50: 0.2 ± 0.04 nM

SMILES: CCOC(=O)C1CC=C(c2cc(C#C[C@H]3O[C@H](CO)[C@@H](O)[C@H](O)[C@@H]3O)c3[nH]ncc3c2)CC1 (stereo partly drawn) [Compound 71, ethyl 4-[7-[2-[(2R,3S,4R,5S,6R)-3,4,5-trihydroxy-6-(hydroxymethyl)tetrahydropyran-2-yl]ethynyl]-1H-indazol-5-yl]cyclohex-3-ene-1-carboxylate]
- IC50: 0.6 ± 0.2 nM

SMILES: CC(C)(C)OC(=O)n1ccc(-c2cc(C#C[C@H]3O[C@H](CO)[C@@H](O)[C@H](O)[C@@H]3O)c3[nH]ncc3c2)c1 [Compound 72, tert-butyl 3-[7-[2-[(2R,3S,4R,5S,6R)-3,4,5-trihydroxy-6-(hydroxymethyl)tetrahydropyran-2-yl]ethynyl]-1H-indazol-5-yl]pyrrole-1-carboxylate]
- IC50: 7 ± 4 nM

SMILES: COc1ccc(-c2cc(C#C[C@H]3O[C@H](CO)[C@@H](O)[C@H](O)[C@@H]3O)c3[nH]ncc3c2)cn1 [Compound 73, (2R,3S,4R,5S,6R)-2-(hydroxymethyl)-6-[2-[5-(6-methoxy-3-pyridyl)-1H-indazol-7-yl]ethynyl]tetrahydropyran-3,4,5-triol]
- IC50: 0.5 ± 0.09 nM

SMILES: O=c1ccc(-c2cc(C#C[C@H]3O[C@H](CO)[C@@H](O)[C@H](O)[C@@H]3O)c3[nH]ncc3c2)c[nH]1 [Compound 74, 5-[7-[2-[(2R,3S,4R,5S,6R)-3,4,5-trihydroxy-6-(hydroxymethyl)tetrahydropyran-2-yl]ethynyl]-1H-indazol-5-yl]-1H-pyridin-2-one]
- IC50: 0.3 ± 0.05 nM

SMILES: OC[C@H]1O[C@H](C#Cc2cc(-c3ccc(OCc4ccccc4)nc3)cc3cn[nH]c23)[C@@H](O)[C@@H](O)[C@@H]1O [Compound 75, (2R,3S,4R,5S,6R)-2-[2-[5-(6-benzyloxy-3-pyridyl)-indazol-7-yl]ethynyl]-6-(hydroxymethyl)tetrahydropyran-3,4,5-triol]
- IC50: 2 ± 0.7 nM

SMILES: Cc1cc(=O)n(C)cc1-c1cc(C#C[C@H]2O[C@H](CO)[C@@H](O)[C@H](O)[C@@H]2O)c2[nH]ncc2c1 [Compound 76, 1,4-dimethyl-5-[7-[2-[(2R,3S,4R,5S,6R)-3,4,5-trihydroxy-6-(hydroxymethyl)tetrahydropyran-2-yl]ethynyl]-1H-indazol-5-yl]pyridin-2-one]
- IC50: 0.3 ± 0.09 nM

SMILES: Cc1ccncc1-c1cc(C#C[C@H]2O[C@H](CO)[C@@H](O)[C@H](O)[C@@H]2O)c2[nH]ncc2c1 [Compound 77, (2R,3S,4R,5S,6R)-2-(hydroxymethyl)-6-[2-[5-(4-methyl-3-pyridyl)-1H-indazol-7-yl]ethynyl]tetrahydropyran-3,4,5-triol]
- IC50: 0.1 ± 0.02 nM

SMILES: COc1ncc(C)cc1-c1cc(C#C[C@H]2O[C@H](CO)[C@@H](O)[C@H](O)[C@@H]2O)c2[nH]ncc2c1 [Compound 78, (2R,3S,4R,5S,6R)-2-(hydroxymethyl)-6-[2-[5-(2-methoxy-5-methyl-3-pyridyl)-1H-indazol-7-yl]ethynyl]tetrahydropyran-3,4,5-triol]
- IC50: 2 ± 0.6 nM

SMILES: Cc1cc(-c2cc(C#C[C@H]3O[C@H](CO)[C@@H](O)[C@H](O)[C@@H]3O)c3[nH]ncc3c2)c[nH]c1=O [Compound 79, 3-methyl-5-[7-[2-[(2R,3S,4R,5S,6R)-3,4,5-trihydroxy-6-(hydroxymethyl)tetrahydropyran-2-yl]ethynyl]-1H-indazol-5-yl]-1H-pyridin-2-one]
- IC50: 0.4 ± 0.1 nM

SMILES: Cc1nc(O)ccc1-c1cc(C#C[C@H]2O[C@H](CO)[C@@H](O)[C@H](O)[C@@H]2O)c2[nH]ncc2c1 [Compound 80, (2R,3S,4R,5S,6R)-2-(hydroxymethyl)-6-[2-[5-(6-hydroxy-2-methyl-3-pyridyl)-1H-indazol-7-yl]ethynyl]tetrahydropyran-3,4,5-triol]
- IC50: 0.2 ± 0.08 nM

SMILES: OC[C@H]1O[C@H](C#Cc2cc(-c3ccc(F)cc3F)cc3cn[nH]c23)[C@@H](O)[C@@H](O)[C@@H]1O [Compound 81, (2R,3S,4R,5S,6R)-2-[2-[5-(2,4-difluorophenyl)-1H-indazol-7-yl]ethynyl]-6-(hydroxymethyl)tetrahydropyran-3,4,5-triol]
- IC50: 0.4 ± 0.2 nM

SMILES: Cc1ccc(C)c(-c2cc(C#C[C@H]3O[C@H](CO)[C@@H](O)[C@H](O)[C@@H]3O)c3[nH]ncc3c2)c1 [Compound 82, (2R,3S,4R,5S,6R)-2-[2-[5-(2,5-dimethylphenyl)-1H-indazol-7-yl]ethynyl]-6-(hydroxymethyl)tetrahydropyran-3,4,5-triol]
- IC50: 1 nM

SMILES: Cc1cc(-c2cc(C#C[C@H]3O[C@H](CO)[C@@H](O)[C@H](O)[C@@H]3O)c3[nH]ncc3c2)cc(C)n1 [Compound 83, (2R,3S,4R,5S,6R)-2-[2-[5-(2,6-dimethyl-4-pyridyl)-1H-indazol-7-yl]ethynyl]-6-(hydroxymethyl)tetrahydropyran-3,4,5-triol]
- IC50: 0.7 ± 0.5 nM

SMILES: Cc1cc(-c2cc(C#C[C@H]3O[C@H](CO)[C@@H](O)[C@H](O)[C@@H]3O)c3[nH]ncc3c2)ccn1 [Compound 84, (2R,3S,4R,5S,6R)-2-(hydroxymethyl)-6-[2-[5-(2-methyl-4-pyridyl)-1H-indazol-7-yl]ethynyl]tetrahydropyran-3,4,5-triol]
- IC50: 0.5 ± 0.2 nM

SMILES: O=c1cc(-c2cc(C#C[C@H]3O[C@H](CO)[C@@H](O)[C@H](O)[C@@H]3O)c3[nH]ncc3c2)cc[nH]1 [Compound 85, 4-[7-[2-[(2R,3S,4R,5S,6R)-3,4,5-trihydroxy-6-(hydroxymethyl)tetrahydropyran-2-yl]ethynyl]-1H-indazol-5-yl]-1H-pyridin-2-one]
- IC50: 0.4 ± 0.2 nM

SMILES: OC[C@H]1O[C@H](C#Cc2cc(-c3cc(F)ccc3F)cc3cn[nH]c23)[C@@H](O)[C@@H](O)[C@@H]1O [Compound 86, (2R,3S,4R,5S,6R)-2-[2-[5-(2,5-difluorophenyl)-1H-indazol-7-yl]ethynyl]-6-(hydroxymethyl)tetrahydropyran-3,4,5-triol]
- IC50: 1 ± 0.2 nM

SMILES: CCc1ccccc1-c1cc(C#C[C@H]2O[C@H](CO)[C@@H](O)[C@H](O)[C@@H]2O)c2[nH]ncc2c1 [Compound 87]
- IC50: 1 nM

SMILES: Cc1ccc(-c2cc(C#C[C@H]3O[C@H](CO)[C@@H](O)[C@H](O)[C@@H]3O)c3[nH]ncc3c2)c(C)c1 [Compound 88, (2R,3S,4R,5S,6R)-2-[2-[5-(2,4-dimethylphenyl)-1H-indazol-7-yl]ethynyl]-6-(hydroxymethyl)tetrahydropyran-3,4,5-triol]
- IC50: 2 nM

SMILES: Cc1ccc(C#N)cc1-c1cc(C#C[C@H]2O[C@H](CO)[C@@H](O)[C@H](O)[C@@H]2O)c2[nH]ncc2c1 [Compound 89, 4-methyl-3-[7-[2-[(2R,3S,4R,5S,6R)-3,4,5-trihydroxy-6-(hydroxymethyl)tetrahydropyran-2-yl]ethynyl]-1H-indazol-5-yl]benzonitrile]
- IC50: 0.5 ± 0.04 nM

SMILES: CNC(=O)c1ccc(F)c(-c2cc(C#C[C@H]3O[C@H](CO)[C@@H](O)[C@H](O)[C@@H]3O)c3[nH]ncc3c2)c1 [Compound 90, 4-fluoro-N-methyl-3-[7-[2-[(2R,3S,4R,5S,6R)-3,4,5-trihydroxy-6-(hydroxymethyl)tetrahydropyran-2-yl]ethynyl]-1H-indazol-5-yl]benzamide]
- IC50: 3 nM

SMILES: Cc1cc(O)ccc1-c1cc(C#C[C@H]2O[C@H](CO)[C@@H](O)[C@H](O)[C@@H]2O)c2[nH]ncc2c1 [Compound 91, (2R,3S,4R,5S,6R)-2-(hydroxymethyl)-6-[2-[5-(4-hydroxy-2-methyl-phenyl)-1H-indazol-7-yl]ethynyl]tetrahydropyran-3,4,5-triol]
- IC50: 0.3 ± 0.03 nM

SMILES: CNC(=O)c1cc(-c2cc(C#C[C@H]3O[C@H](CO)[C@@H](O)[C@H](O)[C@@H]3O)c3[nH]ncc3c2)ccn1 [Compound 92, N-methyl-4-[7-[2-[(2R,3S,4R,5S,6R)-3,4,5-trihydroxy-6-(hydroxymethyl)tetrahydropyran-2-yl]ethynyl]-1H-indazol-5-yl]pyridine-2-carboxamide]
- IC50: 1 nM

SMILES: CCN(CC)S(=O)(=O)c1ccc(C)c(-c2cc(C#C[C@H]3O[C@H](CO)[C@@H](O)[C@H](O)[C@@H]3O)c3[nH]ncc3c2)c1 [Compound 93, N,N-diethyl-4-methyl-3-[7-[2-[(2R,3S,4R,5S,6R)-3,4,5-trihydroxy-6-(hydroxymethyl)tetrahydropyran-2-yl]ethynyl]-1H-indazol-5-yl]benzenesulfonamide]
- IC50: 1 nM

SMILES: Cc1cc(F)ccc1-c1cc(C#C[C@H]2O[C@H](CO)[C@@H](O)[C@H](O)[C@@H]2O)c2[nH]ncc2c1 [Compound 94, (2R,3S,4R,5S,6R)-2-[2-[5-(4-fluoro-2-methyl-phenyl)-1H-indazol-7-yl]ethynyl]-6-(hydroxymethyl)tetrahydropyran-3,4,5-triol]
- IC50: 0.6 ± 0.3 nM
